Structures can show the parent of a compound that is named as a salt.
Key:
[1] = Solubility in octanol (content in the organic phase by UV/VIS spectroscopy, pH values); type: physicochemical; settings: for pH value: solubility test in octanol
Protocol: Solubility tests were carried out in octanol and the content in the organic phase was investigated by UV/VIS spectroscopy and the pH values.

[2] = tested on: rabbits incubated with E. coli; settings: cited from earlier work
[3] = rabbits incubated with E. coli, lidocaine administration

Row | Compound | Content (solubility in octanol, content in the organic phase) [1] | pH value [1] | incidence of pulmonary oedema ([2]; compared to a comparison group) | albumin content in the bronchoalveolar lavage ([2]; lidocaine group) | leucocytes in the bronchoalveolar lavage ([2]; lidocaine group) | haemorrhages, alveolar septal thickening and number of inflammatory cells in the alveolar space ([2]; rabbit, in vivo) | lung mechanics (compliance, resistance) [2, 3] | paO2 [2, 3]
1 | CCN(CC)CCOC(=O)c1ccc(N)cc1 [Procaine hydrochloride] | 8% | 4.5 | – | – | – | – | – | –
2 | CCN(CC)CC(=O)Nc1c(C)cccc1C [lidocaine] | – | – | reduced incidence | lower | fewer | visibly reduced | improved | increase
3 | CCN(CC)CCOC(=O)c1ccc(N)cc1 [Procaine, 4-aminobenzoic acid-2-(N,N-diethylamino)ethyl ester] | completely dissolved (100%) | 8.5 | – | – | – | – | – | –

Reference: patent publication US20250186388A1, “ACTIVE SUBSTANCES FOR MEDICAL USE” (INFLAMED PHARMA GMBH, priority 2020, published 2025)
